{"source": "paper PMC8642699", "about": "“Dipeptidyl peptidase-IV inhibitory action of Calebin A: An in silico and in vitro analysis” (Journal of Ayurveda and Integrative Medicine, 2021)", "target": "T1, Dipeptidyl peptidase-IV (DPP-IV) (Homo sapiens, UniProt P27487)", "T1 construct": "gene DPP4", "T1 sequence (P27487 39-766)": "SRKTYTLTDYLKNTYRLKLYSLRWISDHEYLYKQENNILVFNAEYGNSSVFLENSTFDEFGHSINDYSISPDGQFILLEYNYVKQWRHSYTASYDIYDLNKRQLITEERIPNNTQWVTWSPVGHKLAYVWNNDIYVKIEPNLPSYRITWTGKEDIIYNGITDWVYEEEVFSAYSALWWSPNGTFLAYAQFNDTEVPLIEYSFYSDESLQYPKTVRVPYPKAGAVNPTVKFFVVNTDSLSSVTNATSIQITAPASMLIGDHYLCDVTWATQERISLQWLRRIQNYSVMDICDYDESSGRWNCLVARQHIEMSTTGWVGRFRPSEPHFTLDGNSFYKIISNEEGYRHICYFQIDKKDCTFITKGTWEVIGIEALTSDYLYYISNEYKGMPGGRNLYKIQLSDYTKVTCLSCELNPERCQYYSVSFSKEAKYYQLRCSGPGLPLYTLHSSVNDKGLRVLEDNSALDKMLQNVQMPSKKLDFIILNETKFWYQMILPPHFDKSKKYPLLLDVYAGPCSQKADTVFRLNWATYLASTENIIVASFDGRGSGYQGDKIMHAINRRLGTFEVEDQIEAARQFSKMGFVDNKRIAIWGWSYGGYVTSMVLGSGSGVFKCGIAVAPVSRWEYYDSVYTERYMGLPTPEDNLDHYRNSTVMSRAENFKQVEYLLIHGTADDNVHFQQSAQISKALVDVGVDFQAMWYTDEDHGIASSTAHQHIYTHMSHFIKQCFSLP", "experiment": "Fluorogenic enzyme inhibition assay (Cayman DPP-IV inhibitor screening kit […], Gly-Pro-AMC substrate)", "assay_type": "biochemical", "data": [{"smiles": "COc1cc(/C=C/C(=O)COC(=O)/C=C/c2ccc(O)c(OC)c2)ccc1O", "note": "[CA, Calebin A]", "values": [{"measurement": "IC50", "result": "6.09 ± 0.41", "unit": "µM"}]}]}
